Source: ChEMBL document CHEMBL4699665, “Discovery of ANT3310, a Novel Broad-Spectrum Serine β-Lactamase Inhibitor of the Diazabicyclooctane Class, Which Strongly Potentiates Meropenem Activity against Carbapenem-Resistant Enterobacterales and Acinetobacter baumannii” (J Med Chem, 2020)

Legend:
[1] = system: Klebsiella pneumoniae; experiment: Potentiation of meropenem-induced antibacterial activity against Klebsiella pneumoniae expressing SHV-11/OXA-121 assessed as meropenem MIC at 4 ug/ml by broth microdilution method (reference value: 16 ug/ml); type: functional; settings: dose 4 µg/ml
[2] = Intrinsic clearance in dog hepatocytes assessed per million cells; type: ADME, cell-based, Canis lupus familiaris, Hepatocyte; settings: read-out: CLH
[3] = Intrinsic clearance in mouse hepatocytes assessed per million cells; type: ADME, cell-based, Hepatocyte; settings: read-out: CLH
[4] = Volume of distribution in rat at 1 mg/kg, iv; type: ADME, organism-based; settings: in vivo
[5] = Stability in human plasma assessed as parent compound remaining after 1 hr; type: ADME, cell-free; settings: read-out: Stabilty
[6] = system: Klebsiella pneumoniae; experiment: Potentiation of meropenem-induced antibacterial activity against Klebsiella Pneumoniae ACC-00783 expressing OXA-48 infected in CD-1 mouse assessed as reduction in bacterial burden co administered with 300 mg/kg, iv meropenem; type: functional, organism-based; settings: dose mg/kg 25-100
[7] = system: Klebsiella pneumoniae; experiment: Potentiation of meropenem-induced antibacterial activity against Klebsiella pneumoniae expressing TEM-OSBL/CTX-M-14/OXA-48 assessed as meropenem MIC at 4 ug/ml by broth microdilution method (reference value: 16 ug/ml); type: functional; settings: dose 4 µg/ml
[8] = biological target: Voltage-gated inwardly rectifying potassium channel KCNH2 (Homo sapiens, UniProt Q12809); experiment: Inhibition of human ERG by patch-clamp assay
Sequence of Voltage-gated inwardly rectifying potassium channel KCNH2 (Q12809 whole entry): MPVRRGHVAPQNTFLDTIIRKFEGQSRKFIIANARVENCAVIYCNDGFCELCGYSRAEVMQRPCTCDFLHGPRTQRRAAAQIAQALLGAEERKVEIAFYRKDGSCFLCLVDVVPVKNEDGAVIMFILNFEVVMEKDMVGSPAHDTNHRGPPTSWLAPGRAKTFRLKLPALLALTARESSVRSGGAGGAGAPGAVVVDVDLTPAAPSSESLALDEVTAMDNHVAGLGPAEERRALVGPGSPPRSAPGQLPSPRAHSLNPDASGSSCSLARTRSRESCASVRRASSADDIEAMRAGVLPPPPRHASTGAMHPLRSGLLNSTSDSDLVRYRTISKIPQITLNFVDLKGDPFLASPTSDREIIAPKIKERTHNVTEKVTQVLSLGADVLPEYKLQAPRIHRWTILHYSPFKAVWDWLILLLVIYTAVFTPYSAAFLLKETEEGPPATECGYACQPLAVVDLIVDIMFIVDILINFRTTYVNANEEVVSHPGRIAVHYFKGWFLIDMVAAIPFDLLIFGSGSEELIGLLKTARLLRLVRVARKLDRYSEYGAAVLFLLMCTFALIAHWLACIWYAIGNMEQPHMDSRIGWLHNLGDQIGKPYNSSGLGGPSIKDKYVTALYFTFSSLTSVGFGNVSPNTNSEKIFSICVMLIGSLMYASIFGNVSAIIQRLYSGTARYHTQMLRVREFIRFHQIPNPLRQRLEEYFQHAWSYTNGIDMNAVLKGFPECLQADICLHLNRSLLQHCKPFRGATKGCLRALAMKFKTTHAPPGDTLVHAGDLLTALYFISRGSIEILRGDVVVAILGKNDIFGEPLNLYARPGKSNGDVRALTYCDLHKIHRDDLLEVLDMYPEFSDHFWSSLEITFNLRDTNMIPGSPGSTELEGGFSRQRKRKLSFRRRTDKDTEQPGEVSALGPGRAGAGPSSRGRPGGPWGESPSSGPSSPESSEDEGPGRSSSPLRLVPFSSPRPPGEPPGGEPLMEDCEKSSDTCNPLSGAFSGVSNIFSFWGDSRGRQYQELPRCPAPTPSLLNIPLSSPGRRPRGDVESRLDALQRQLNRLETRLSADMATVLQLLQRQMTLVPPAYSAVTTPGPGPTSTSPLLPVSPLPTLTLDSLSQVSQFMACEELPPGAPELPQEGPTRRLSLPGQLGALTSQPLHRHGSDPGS

[9] = system: Enterobacter; experiment: Inhibition of beta lactamase KPC in carbapenem-resistant Enterobacter assessed as meropenem minimum concentration required for antibacterial activity at 4 ug/ml by broth microdilution method (reference value: 4 ug/ml); settings: dose 4.0 µg/ml
[10] = system: Klebsiella pneumoniae; experiment: Antibacterial activity against Klebsiella pneumoniae expressing SHV-11/OXA-181 by broth microdilution method; type: functional
[11] = Cytotoxicity against human HepG2 cells; type: cell-based
[12] = Stability in rat plasma assessed as parent compound remaining after 1 hr; type: ADME, cell-free; settings: read-out: Stabilty
[13] = Plasma protein binding in human assessed as fraction unbound by LC-MS/MS analysis; type: ADME, cell-free
[14] = Plasma protein binding in dog assessed as fraction unbound by LC-MS/MS analysis; type: ADME, cell-free, Canis lupus familiaris
[15] = biological target: Cytochrome P450 2C9 (Homo sapiens, UniProt P11712); experiment: Inhibition of CYP2C9 in human liver microsomes in presence of NADPH by LC-MS/MS analysis; type: ADME
Sequence of Cytochrome P450 2C9 (P11712 whole entry): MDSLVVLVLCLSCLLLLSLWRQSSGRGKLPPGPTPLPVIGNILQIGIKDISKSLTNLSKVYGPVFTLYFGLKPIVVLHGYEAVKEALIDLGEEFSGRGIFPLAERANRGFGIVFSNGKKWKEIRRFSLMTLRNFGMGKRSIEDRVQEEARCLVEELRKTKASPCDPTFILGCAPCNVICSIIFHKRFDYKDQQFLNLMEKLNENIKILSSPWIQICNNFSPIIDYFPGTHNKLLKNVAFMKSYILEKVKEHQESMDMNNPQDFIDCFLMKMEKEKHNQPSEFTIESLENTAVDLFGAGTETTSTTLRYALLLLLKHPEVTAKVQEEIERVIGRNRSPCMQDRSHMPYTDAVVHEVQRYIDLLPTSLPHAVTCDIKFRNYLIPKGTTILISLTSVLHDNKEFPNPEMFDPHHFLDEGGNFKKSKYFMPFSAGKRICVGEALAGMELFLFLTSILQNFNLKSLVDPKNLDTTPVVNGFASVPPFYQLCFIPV

[16] = system: Enterobacter; experiment: Inhibition of beta lactamase OXA in carbapenem-resistant Enterobacter assessed as meropenem-induced antibacterial activity by measuring meropenem MIC 90 at 4 ug/ml by broth microdilution method (Rvb >32 ug/ml); settings: dose 4.0 µg/ml
[17] = Inhibition of bacteria beta lactamase OXA-23 assessed as decrease in enzyme activity using nitrocefin as substrate preincubated for 10 mins followed by substrate addition measured for 10 mins by fluorescence plate reader analysis
[18] = system: Acinetobacter baumannii; experiment: Antibacterial activity against Acinetobacter baumannii expressing OXA-23 by broth microdilution method; type: functional
[19] = Clearance in rat at 1 mg/kg, iv; type: ADME, organism-based; settings: in vivo
[20] = system: Klebsiella pneumoniae; experiment: Antibacterial activity against Klebsiella pneumoniae expressing TEM-OSBL/CTX-M-14/OXA-48 by broth microdilution method; type: functional
[21] = Toxicity in iv dosed rat administered as single dose; type: organism-based; settings: in vivo
[22] = Plasma protein binding in mouse assessed as fraction unbound by LC-MS/MS analysis; type: ADME, cell-free
[23] = system: Klebsiella pneumoniae; experiment: Antibacterial activity against Klebsiella pneumoniae expressing TEM-1/SHV-11/KPC-3 by broth microdilution method; type: functional

O=C1N2C[C@@H](CC[C@H]2F)N1OS(=O)(=O)[O-].[Na+]
MIC [1]: 1 µg/mL | hepatocyte CLint [2]: < 3 µL/min/1e6 cells | hepatocyte CLint [3]: < 3.5 µL/min/1e6 cells | Vd [4]: 2.2 L/kg | remaining at 1 h [5]: 79% | Activity [6]: Dose-dependent effect | MIC [7]: 0.25 µg/mL | IC50 [8]: > 100 µM | MIC [9]: < 0.03 µg/mL | MIC [10]: 128 µg/mL | CC50 [11]: > 100 µM | remaining at 1 h [12]: 55% | fraction unbound [13]: > 0.93 | fraction unbound [14]: > 0.93 | IC50 [15]: > 50 µM | MIC90 [16]: 1 µg/mL | IC50 [17]: 0.05 µM | MIC [18]: > 128 µg/mL | clearance [19]: 40 mL/min/kg | MIC [20]: 64 µg/mL | MTD [21]: ≥ 1000 mg/kg | fraction unbound [22]: > 0.93 | MIC [23]: 128 µg/mL
